Experimental data: ChEMBL document CHEMBL1255475, “Mutant prevention concentrations of four carbapenems against gram-negative rods” (2010)

Assays:
[1] = system: Pseudomonas aeruginosa; assay: Antibacterial activity against Pseudomonas aeruginosa P319 assessed as mutant prevention concentration after overnight incubation; assay type: functional
[2] = system: Pseudomonas aeruginosa; assay: Antibacterial activity against Pseudomonas aeruginosa P322 assessed as mutant prevention concentration after overnight incubation; assay type: functional
[3] = system: Acinetobacter baumannii; assay: Antibacterial activity against Acinetobacter baumannii A865 assessed as mutant prevention concentration after overnight incubation; assay type: functional
[4] = system: Acinetobacter baumannii; assay: Antibacterial activity against Acinetobacter baumannii A867 assessed as mutant prevention concentration after overnight incubation; assay type: functional
[5] = system: Acinetobacter baumannii; assay: Antibacterial activity against Acinetobacter baumannii A864 assessed as mutant prevention concentration after overnight incubation; assay type: functional
[6] = system: Klebsiella pneumoniae; assay: Ratio of mutant prevention concentration to minimum Inhibitory concentration for beta-lactamase-positive ESBL-negative Klebsiella pneumoniae E507; assay type: functional
[7] = system: Escherichia coli; assay: Ratio of mutant prevention concentration to minimum Inhibitory concentration for beta-lactamase-positive ESBL-positive Escherichia coli E446; assay type: functional
[8] = system: Escherichia coli; assay: Antibacterial activity against beta-lactamase-negative Escherichia coli E346 incubated up to 7 days by agar dilution method; assay type: functional; settings: E346, 168 h
[9] = system: Escherichia coli; assay: Ratio of mutant prevention concentration to minimum Inhibitory concentration for beta-lactamase-positive ESBL-positive Escherichia coli E450; assay type: functional
[10] = system: Escherichia coli; assay: Ratio of mutant prevention concentration to minimum Inhibitory concentration for beta-lactamase-negative Escherichia coli E408; assay type: functional
[11] = system: Klebsiella pneumoniae; assay: Antibacterial activity against beta-lactamase-positive ESBL-negative Klebsiella pneumoniae E509 incubated up to 7 days by agar dilution method; assay type: functional; settings: E509, 168 h
[12] = system: Klebsiella pneumoniae; assay: Ratio of mutant prevention concentration to minimum Inhibitory concentration for beta-lactamase-positive ESBL-positive Klebsiella pneumoniae E476; assay type: functional
[13] = system: Klebsiella pneumoniae; assay: Ratio of mutant prevention concentration to minimum Inhibitory concentration for beta-lactamase-positive ESBL-negative Klebsiella pneumoniae E477; assay type: functional
[14] = system: Escherichia coli; assay: Ratio of mutant prevention concentration to minimum Inhibitory concentration for beta-lactamase-negative Escherichia coli E346; assay type: functional
[15] = system: Escherichia coli; assay: Antibacterial activity against beta-lactamase-negative Escherichia coli E344 incubated up to 7 days by agar dilution method; assay type: functional; settings: E344, 168 h
[16] = system: Klebsiella pneumoniae; assay: Ratio of mutant prevention concentration to minimum Inhibitory concentration for beta-lactamase-negative Klebsiella pneumoniae E418; assay type: functional
[17] = system: Klebsiella pneumoniae; assay: Ratio of mutant prevention concentration to minimum Inhibitory concentration for beta-lactamase-negative Klebsiella pneumoniae E357; assay type: functional
[18] = system: Escherichia coli; assay: Ratio of mutant prevention concentration to minimum Inhibitory concentration for beta-lactamase-positive ESBL-positive Escherichia coli E460; assay type: functional
[19] = system: Escherichia coli; assay: Ratio of mutant prevention concentration to minimum Inhibitory concentration for beta-lactamase-negative Escherichia coli E425; assay type: functional
[20] = system: Escherichia coli; assay: Antibacterial activity against beta-lactamase-negative Escherichia coli E408 incubated up to 7 days by agar dilution method; assay type: functional; settings: E408, 168 h
[21] = system: Klebsiella pneumoniae; assay: Ratio of mutant prevention concentration to minimum Inhibitory concentration for beta-lactamase-positive ESBL-negative Klebsiella pneumoniae E479; assay type: functional
[22] = system: Escherichia coli; assay: Ratio of mutant prevention concentration to minimum Inhibitory concentration for beta-lactamase-negative Escherichia coli E350; assay type: functional
[23] = system: Klebsiella pneumoniae; assay: Ratio of mutant prevention concentration to minimum Inhibitory concentration for beta-lactamase-positive ESBL-positive Klebsiella pneumoniae E475; assay type: functional
[24] = system: Klebsiella pneumoniae; assay: Ratio of mutant prevention concentration to minimum Inhibitory concentration for beta-lactamase-negative Klebsiella pneumoniae E362; assay type: functional
[25] = system: Klebsiella pneumoniae; assay: Ratio of mutant prevention concentration to minimum Inhibitory concentration for beta-lactamase-negative Klebsiella pneumoniae E419; assay type: functional
[26] = system: Escherichia coli; assay: Ratio of mutant prevention concentration to minimum Inhibitory concentration for beta-lactamase-positive ESBL-positive Escherichia coli E451; assay type: functional
[27] = system: Klebsiella pneumoniae; assay: Ratio of mutant prevention concentration to minimum Inhibitory concentration for beta-lactamase-positive ESBL-negative Klebsiella pneumoniae E511; assay type: functional
[28] = system: Klebsiella pneumoniae; assay: Ratio of mutant prevention concentration to minimum Inhibitory concentration for beta-lactamase-positive ESBL-negative Klebsiella pneumoniae E480; assay type: functional
[29] = system: Klebsiella pneumoniae; assay: Ratio of mutant prevention concentration to minimum Inhibitory concentration for beta-lactamase-positive ESBL-negative Klebsiella pneumoniae E473; assay type: functional
[30] = system: Escherichia coli; assay: Ratio of mutant prevention concentration to minimum Inhibitory concentration for beta-lactamase-negative Escherichia coli E424; assay type: functional
[31] = system: Escherichia coli; assay: Ratio of mutant prevention concentration to minimum Inhibitory concentration for beta-lactamase-positive ESBL-negative Escherichia coli E415; assay type: functional
[32] = system: Acinetobacter baumannii; assay: Antibacterial activity against Acinetobacter baumannii A864 incubated for 24 hrs by agar dilution method; settings: A864, 24 h
[33] = system: Acinetobacter baumannii; assay: Antibacterial activity against Acinetobacter baumannii A901 incubated up to 7 days by agar dilution method; assay type: functional; settings: A901, 168 h
[34] = system: Pseudomonas aeruginosa; assay: Antibacterial activity against Pseudomonas aeruginosa P369 incubated up to 7 days by agar dilution method; assay type: functional; settings: P369, 168 h
[35] = system: Pseudomonas aeruginosa; assay: Antibacterial activity against Pseudomonas aeruginosa P370 incubated up to 7 days by agar dilution method; assay type: functional; settings: P370, 168 h
[36] = system: Pseudomonas aeruginosa; assay: Antibacterial activity against Pseudomonas aeruginosa P332 incubated up to 7 days by agar dilution method; assay type: functional; settings: P332, 168 h
[37] = system: Acinetobacter baumannii; assay: Antibacterial activity against Acinetobacter baumannii A931 incubated for 24 hrs by agar dilution method; settings: A931, 24 h
[38] = system: Pseudomonas aeruginosa; assay: Antibacterial activity against Pseudomonas aeruginosa P335 incubated up to 7 days by agar dilution method; assay type: functional; settings: P335, 168 h
[39] = system: Pseudomonas aeruginosa; assay: Antibacterial activity against Pseudomonas aeruginosa P326 incubated up to 7 days by agar dilution method; assay type: functional; settings: P326, 168 h
[40] = system: Pseudomonas aeruginosa; assay: Antibacterial activity against Pseudomonas aeruginosa P340 incubated up to 7 days by agar dilution method; assay type: functional; settings: P340, 168 h
[41] = system: Pseudomonas aeruginosa; assay: Antibacterial activity against Pseudomonas aeruginosa P352 incubated up to 7 days by agar dilution method; assay type: functional; settings: P352, 168 h
[42] = system: Acinetobacter baumannii; assay: Antibacterial activity against Acinetobacter baumannii A928 incubated for 24 h by agar dilution method; settings: A928, 24 h
[43] = system: Acinetobacter baumannii; assay: Antibacterial activity against Acinetobacter baumannii A891 incubated up to 7 days by agar dilution method; assay type: functional; settings: A891, 168 h
[44] = system: Pseudomonas aeruginosa; assay: Antibacterial activity against Pseudomonas aeruginosa P319 incubated up to 7 days by agar dilution method; assay type: functional; settings: P319, 168 h
[45] = system: Acinetobacter baumannii; assay: Antibacterial activity against Acinetobacter baumannii A850 incubated up to 7 days by agar dilution method; assay type: functional; settings: A850, 168 h
[46] = system: Pseudomonas aeruginosa; assay: Antibacterial activity against Pseudomonas aeruginosa P358 incubated up to 7 days by agar dilution method; assay type: functional; settings: P358, 168 h
[47] = system: Pseudomonas aeruginosa; assay: Antibacterial activity against Pseudomonas aeruginosa P322 incubated up to 7 days by agar dilution method; assay type: functional; settings: P322, 168 h
[48] = system: Pseudomonas aeruginosa; assay: Antibacterial activity against Pseudomonas aeruginosa P323 incubated up to 7 days by agar dilution method; assay type: functional; settings: P323, 168 h
[49] = system: Pseudomonas aeruginosa; assay: Antibacterial activity against Pseudomonas aeruginosa P376 incubated up to 7 days by agar dilution method; assay type: functional; settings: P376, 168 h
[50] = system: Pseudomonas aeruginosa; assay: Antibacterial activity against Pseudomonas aeruginosa P337 incubated up to 7 days by agar dilution method; assay type: functional; settings: P337, 168 h

C[C@@H](O)[C@H]1C(=O)N2C(C(=O)O)=C(SCCNC=N)C[C@H]12 [IMIPENEM ANHYDROUS]
64 µg/mL: MPC [4] | MPC [5]
32 µg/mL: MPC [1] | MPC [2] | MPC [3]

C[C@@H](O)[C@H]1C(=O)N2C(C(=O)O)=C(S[C@@H]3CN[C@H](C(=O)Nc4cccc(C(=O)O)c4)C3)[C@H](C)[C@H]12
2: Ratio [16] | Ratio [22] | Ratio [23] | Ratio [25]
0.016 µg/mL: MIC [20]
8: Ratio [6] | Ratio [21] | Ratio [27]
0.008 µg/mL: MIC [8] | MIC [15]
>16: Ratio [9]
16 µg/mL: MIC [11]
16: Ratio [26]
4: Ratio [7] | Ratio [10] | Ratio [12] | Ratio [13] | Ratio [14] | Ratio [17] | Ratio [18] | Ratio [19] | Ratio [24] | Ratio [28] | Ratio [29] | Ratio [30] | Ratio [31]

C[C@@H](O)[C@H]1C(=O)N2C(C(=O)O)=C(S[C@@H]3CN[C@H](C(=O)N(C)C)C3)[C@H](C)[C@H]12 [MEROPENEM]
8 µg/mL: MIC [32] | MPC [1] | MIC [39] | MIC [46]
2 µg/mL: MIC [33] | MIC [41] | MIC [44] | MIC [47]
0.5 µg/mL: MIC [34] | MIC [48]
1 µg/mL: MIC [36] | MIC [37] | MIC [42] | MIC [43] | MIC [49] | MIC [50]
0.25 µg/mL: MIC [35] | MIC [40]
4 µg/mL: MIC [38] | MIC [45]
16 µg/mL: MPC [2]

C[C@@H](O)[C@H]1C(=O)N2C(C(=O)O)=C(S[C@@H]3CN[C@H](CNS(N)(=O)=O)C3)[C@H](C)[C@H]12 [DORIPENEM]
8: Ratio [23]
2 µg/mL: MIC [38] | MIC [44]
0.5 µg/mL: MIC [42] | MIC [43] | MIC [47] | MIC [48] | MIC [49]
4: Ratio [9] | Ratio [12] | Ratio [18] | Ratio [28] | Ratio [29]
8 µg/mL: MIC [32] | MPC [1] | MIC [46]
0.25 µg/mL: MIC [34] | MIC [35] | MIC [36]
0.125 µg/mL: MIC [40]
1 µg/mL: MIC [37] | MIC [41] | MIC [50]
2: Ratio [7] | Ratio [10] | Ratio [14] | Ratio [16] | Ratio [17] | Ratio [19] | Ratio [22] | Ratio [24] | Ratio [25] | Ratio [26] | Ratio [30] | Ratio [31]
>16: Ratio [6] | Ratio [13] | Ratio [21] | Ratio [27]
4 µg/mL: MIC [33] | MIC [11] | MIC [39] | MPC [2] | MIC [45]
64 µg/mL: MPC [3] | MPC [4] | MPC [5]
0.03 µg/mL: MIC [8] | MIC [15] | MIC [20]
